Laboratory results from patent US7378265B2 (priority 1998, dated 2008).

System: recombinant retroviruses expressing the LacZ marker gene
Type: cell-based, retrovirus

OC[C@H]1O[C@@H]2O[C@H]3[C@H](O)[C@@H](O)[C@@H](O[C@H]4[C@H](O)[C@@H](O)[C@@H](O[C@H]5[C@H](O)[C@@H](O)[C@@H](O[C@H]6[C@H](O)[C@@H](O)[C@@H](O[C@H]7[C@H](O)[C@@H](O)[C@@H](O[C@H]8[C@H](O)[C@@H](O)[C@@H](O[C@H]1[C@H](O)[C@H]2O)O[C@@H]8CO)O[C@@H]7CO)O[C@@H]6CO)O[C@@H]5CO)O[C@@H]4CO)O[C@@H]3CO [β-cyclodextrin]
enhancement of the retroviral inactivation, additional factor: 10
